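GI50 marks 50% less growth. Definition used: TGI = concentration required for complete inhibition of growth.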
Key:
Assay in all cases: NCI tumour cell line growth inhibition, 384-well format
786-0 renal = tested on: 786-0 renal
A549 NSCLC = tested on: A549 NSCLC
ACHN renal = tested on: ACHN renal
BT-549 breast = tested on: BT-549 breast
CAKI-1 renal = tested on: CAKI-1 renal
CCRF-CEM leukemia = tested on: CCRF-CEM leukemia
COLO 205 colon = tested on: COLO 205 colon
DU-145 prostate = tested on: DU-145 prostate
HCC-2998 colon = tested on: HCC-2998 colon
HCT-116 colon = tested on: HCT-116 colon
HCT-15 colon = tested on: HCT-15 colon
HL-60(TB) leukemia = tested on: HL-60(TB) leukemia
HOP-62 NSCLC = tested on: HOP-62 NSCLC
HOP-92 NSCLC = tested on: HOP-92 NSCLC
HS 578T breast = tested on: HS 578T breast
HT29 colon = tested on: HT29 colon
IGROV1 ovarian = tested on: IGROV1 ovarian
K-562 leukemia = tested on: K-562 leukemia
LOX IMVI melanoma = tested on: LOX IMVI melanoma
M14 melanoma = tested on: M14 melanoma
MALME-3M melanoma = tested on: MALME-3M melanoma
MCF7 breast = tested on: MCF7 breast
MDA-MB-231 breast = tested on: MDA-MB-231 breast
MDA-MB-435 melanoma = tested on: MDA-MB-435 melanoma
MDA-MB-468 breast = tested on: MDA-MB-468 breast
MOLT-4 leukemia = tested on: MOLT-4 leukemia
NCI-H23 lung = tested on: NCI-H23 lung
NCI-H522 lung = tested on: NCI-H522 lung
NCI/ADR-RES ovarian = tested on: NCI/ADR-RES ovarian
OVCAR-3 ovarian = tested on: OVCAR-3 ovarian
OVCAR-4 ovarian = tested on: OVCAR-4 ovarian
OVCAR-5 ovarian = tested on: OVCAR-5 ovarian
OVCAR-8 ovarian = tested on: OVCAR-8 ovarian
RXF 393 renal = tested on: RXF 393 renal
SF-268 CNS = tested on: SF-268 CNS
SF-295 CNS = tested on: SF-295 CNS
SF-539 CNS = tested on: SF-539 CNS
SK-OV-3 ovarian = tested on: SK-OV-3 ovarian
SN12C renal = tested on: SN12C renal
SNB-19 CNS = tested on: SNB-19 CNS
SNB-75 CNS = tested on: SNB-75 CNS
SR leukemia = tested on: SR leukemia
SW-620 colon = tested on: SW-620 colon
T-47D breast = tested on: T-47D breast
TK-10 renal = tested on: TK-10 renal
UACC-257 melanoma = tested on: UACC-257 melanoma
UO-31 renal = tested on: UO-31 renal

FC(F)(F)c1ccc(CNc2ccc(Cc3c[nH]c4ncc(Cl)cc34)cn2)cn1
GI50 ([…]-0 renal): 3.7 µM
TGI (786-0 renal): 10.7 µM
GI50 (A549 NSCLC): 13.1 µM
TGI (A549 NSCLC): 26.2 µM
GI50 (ACHN renal): 14.1 µM
TGI (ACHN renal): 30.7 µM
GI50 (BT-549 breast): 12.2 µM
TGI (BT-549 breast): 25.5 µM
GI50 (CAKI-1 renal): 14.7 µM
TGI (CAKI-1 renal): 28.8 µM
GI50 (CCRF-CEM leukemia): 6.19 µM
TGI (CCRF-CEM leukemia): 17.9 µM
GI50 (COLO 205 colon): 14.9 µM
TGI (COLO 205 colon): 28.4 µM
GI50 (DU-145 prostate): 15.4 µM
TGI (DU-145 prostate): 29.1 µM
GI50 (HCC-2998 colon): 13.8 µM
TGI (HCC-2998 colon): 26.9 µM
GI50 (HCT-116 colon): 12.8 µM
TGI (HCT-116 colon): 25.9 µM
GI50 (HCT-15 colon): 11.4 µM
TGI (HCT-15 colon): 23.9 µM
GI50 (HL-60(TB) leukemia): 6.17 µM
TGI (HL-60(TB) leukemia): 16.3 µM
GI50 (HOP-62 NSCLC): 12.2 µM
TGI (HOP-62 NSCLC): 25.5 µM
GI50 (HOP-92 NSCLC): 8.41 µM
TGI (HOP-92 NSCLC): 21.3 µM
GI50 (HS 578T breast): 2.15 µM
TGI (HS 578T breast): 7.11 µM
GI50 (HT29 colon): 9.79 µM
TGI (HT29 colon): 23 µM
GI50 (IGROV1 ovarian): 13.5 µM
TGI (IGROV1 ovarian): 27.8 µM
GI50 (K-562 leukemia): 5.09 µM
TGI (K-562 leukemia): 17.2 µM
GI50 (LOX IMVI melanoma): 14.4 µM
TGI (LOX IMVI melanoma): 27.7 µM
GI50 (M14 melanoma): 13.3 µM
TGI (M14 melanoma): 26.2 µM
GI50 (MALME-3M melanoma): 8.2 µM
TGI (MALME-3M melanoma): 17.4 µM
GI50 (MCF7 breast): 12.5 µM
TGI (MCF7 breast): 25.3 µM
GI50 (MDA-MB-231 breast): 13.7 µM
TGI (MDA-MB-231 breast): 26.7 µM
GI50 (MDA-MB-435 melanoma): 16.2 µM
TGI (MDA-MB-435 melanoma): 30.1 µM
GI50 (MDA-MB-468 breast): 2.82 µM
TGI (MDA-MB-468 breast): 9.15 µM
GI50 (MOLT-4 leukemia): 2.83 µM
TGI (MOLT-4 leukemia): 9.58 µM
GI50 (NCI-H23 lung): 11 µM
TGI (NCI-H23 lung): 23 µM
GI50 (NCI-H522 lung): 8.58 µM
TGI (NCI-H522 lung): 21 µM
GI50 (NCI/ADR-RES ovarian): 9.91 µM
TGI (NCI/ADR-RES ovarian): 21.9 µM
GI50 (OVCAR-3 ovarian): 15.7 µM
TGI (OVCAR-3 ovarian): 29.8 µM
GI50 (OVCAR-4 ovarian): 9.12 µM
TGI (OVCAR-4 ovarian): 22.2 µM
GI50 (OVCAR-5 ovarian): 15.7 µM
TGI (OVCAR-5 ovarian): 29.6 µM
GI50 (OVCAR-8 ovarian): 10.3 µM
TGI (OVCAR-8 ovarian): 23.1 µM
GI50 (RXF 393 renal): 4.54 µM
TGI (RXF 393 renal): 14.7 µM
GI50 (SF-268 CNS): 8.91 µM
TGI (SF-268 CNS): 21.7 µM
GI50 (SF-295 CNS): 11.3 µM
TGI (SF-295 CNS): 23.7 µM
GI50 (SF-539 CNS): 11.2 µM
TGI (SF-539 CNS): 23.7 µM
GI50 (SK-OV-3 ovarian): 12 µM
TGI (SK-OV-3 ovarian): 26 µM
GI50 (SN12C renal): 14 µM
TGI (SN12C renal): 27.1 µM
GI50 (SNB-19 CNS): 15.9 µM
TGI (SNB-19 CNS): 30.5 µM
GI50 (SNB-75 CNS): 2.73 µM
TGI (SNB-75 CNS): 8.45 µM
GI50 (SR leukemia): 2.13 µM
TGI (SR leukemia): 5.5 µM
GI50 (SW-620 colon): 15.1 µM
TGI (SW-620 colon): 28.8 µM
GI50 (T-47D breast): 4.85 µM
TGI (T-47D breast): 16.1 µM
GI50 (TK-10 renal): 14.4 µM
TGI (TK-10 renal): 28.6 µM
GI50 (UACC-257 melanoma): 12.4 µM
TGI (UACC-257 melanoma): 25.9 µM
GI50 (UO-31 renal): 11.6 µM
TGI (UO-31 renal): 23.9 µM

From PubChem BioAssay (NCI)
